The values that follow are results of earlier work, collected in article PMC10147685, “Safety, tolerability, and pharmacokinetics of Aurora kinase B inhibitor AZD2811: a phase 1 dose-finding study in patients with advanced solid tumours” (British Journal of Cancer, 2023).

For data set [1], the system named is patients with advanced solid tumours. Further details: method as in PMID 27349901. The note with it: cited from earlier work.
In a further data set the test system is advanced solid tumours. Further details: method as in PMID 22661287. The note with it: cited from earlier work.

SMILES strings stand for the structures.

`CC(C)NC(=O)[C@H]1CCC[C@H]1Nc1nc(Nc2ccc(C(=O)N(C)C3CCN(C)CC3)cc2)ncc1C(F)(F)F` [BI 811283]: the Objective responses entry in data set [1] is “no objective responses”. In addition, the “Patients with SD” value in data set [1] (depending on the treatment schedule) is 30–33%.

With `CCN(CCCOc1ccc2c(Nc3cc(CC(=O)Nc4cccc(F)c4)n[nH]3)ncnc2c1)CCOP(=O)(O)O` [barasertib], in the data set on advanced solid tumours, the Objective responses entry is on record as “no objective responses” and the “Patients with SD” value is reported as 23%.
